Test results reported in patent US20170216295A1, “CCR9 ANTAGONIST COMPOUNDS” (Merck Sharp & Dohme Corp., priority 2014, published 2017).
Values after ≈ are worked out from the molar mass of the structure shown. Read-outs that look alike come from different tables or passages of the source.

Experiments:
[1] = pH-solubility (high-throughput, buffers); type: physicochemical; settings: for solubility at 24 h: aqueous with cosolvent or surfactant or cyclodextrin, kinetic from dmso stock; for Sol. pH 4: 1000 ug compound in 1 mL pH 4 buffer; for Sol. pH 7: 1000 ug compound in 1 mL pH 7 buffer; for Sol. pH 9: 1000 ug compound in 1 mL pH 9 buffer
Description: Solubility of representative acidic triazoles was measured in 3 buffer systems (pH 4, 7.4 and 9) using an in-house high-throughput solubility method. A stock solution of test article was prepared in DMA (20 mg/ml) and spiked into each buffer system (20× dilution) to target 1 mg/ml concentration. The samples were vortexed briefly and equilibrated for 24 hr at RT. Samples were then filtered using 0.22u PVDF membrane filters and analyzed for drug concentration using HPLC.

[2] = In-vitro precipitation time in simulated gastric and intestinal fluids; type: physicochemical; settings: oral dosing solution; for In-vitro Precipitation Time (Visual assessment), SGF: simulated gastric fluid; for In-vitro Precipitation Time (Visual assessment), SIF: simulated intestinal fluid
Description: Dosing solutions at 1 mg/mL for rat PK studies were prepared using either a pH+co-solvent approach or pH+cosolvent+surfactant approach. The total amounts of cosolvent and surfactant used in the solution formulations ranged from 5-8% v/v and q.s. with pH 9 phosphate buffer. Solutions were assessed for their potential for in-vivo precipitation using an in-vitro dilution test (1:1, 1:4 and 1:9) in simulated gastric and intestinal fluids.

[3] = Rat plasma protein binding (equilibrium dialysis); type: in vitro ADME; settings: for fraction unbound at 6 h: read-out: Rat Plasma Protein Binding (PPB) Fu; for Rat Plasma Protein Binding (PPB) Fu: fraction unbound
Description: (§1) Plasma and Microsome Protein Binding:
(§2) Protein binding was measured via high throughput equilibrium dialysis with the HTDialysis device fitted with a 12,000 to 14,000 Da molecular weight cutoff membrane. Rat plasma or 1 mg/mL rat hepatic microsomes spiked with test article were dialyzed vs. phosphate buffer for 6 hours. Aliquots were removed from both sides of the membrane and diluted with equal volumes of the opposite matrix. Following protein precipitation and centrifugation, the resultant matrix matched supernatants were analyzed by LC-MS to compare the plasma or microsome dialysate test article signal to the buffer signal. Test article stability was monitored during the course of the assay.

CCR9 receptor = target: T1, CCR9 receptor (Homo sapiens, UniProt P51686); assay: Calcium mobilization (Ca FLIPR) assay, antagonist mode vs TECK; type: cell-based; settings: for LipE: LipE = pIC50-clogD; for IC50: cells expressing CCR9, TECK at EC80 0.01 uM, read-out: CCR9 Ca2+ IC50
T1 sequence (P51686 1-369): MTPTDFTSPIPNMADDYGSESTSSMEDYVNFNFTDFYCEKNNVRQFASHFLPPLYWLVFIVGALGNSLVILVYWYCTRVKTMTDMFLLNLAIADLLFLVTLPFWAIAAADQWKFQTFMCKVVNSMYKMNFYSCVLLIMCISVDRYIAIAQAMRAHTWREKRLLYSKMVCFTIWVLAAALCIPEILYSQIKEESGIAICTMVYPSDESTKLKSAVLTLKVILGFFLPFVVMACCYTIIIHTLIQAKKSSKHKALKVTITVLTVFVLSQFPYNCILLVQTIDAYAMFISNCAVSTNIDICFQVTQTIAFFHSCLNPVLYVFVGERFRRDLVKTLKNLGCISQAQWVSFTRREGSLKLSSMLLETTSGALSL
Description: Calcium Mobilization Assay:
Cells expressing CCR9 receptor (MultiSpan, Hayward, Calif.) were seeded in 384-well plates. Ca^2+ assays were conducted after overnight culture in the plates according to the manufacturer's protocol using Screen Quest™ Fluo-8 no wash kit (AAT Bioquest, Sunnyvale, Calif.). Dye loading buffer was added to the cells and incubated for 45 minutes at 37° C. followed by 15 minutes incubation at room temperature. Compounds in the presence of 0.1% DMSO were applied to the cells during calcium flux measurement. Calcium flux was monitored for 90 seconds with compound application after 10 seconds. For antagonist mode, cells were preincubated with the compound at room temperature for 10 minutes before the application of the control agonist TECK (Preprotech, Rocky Hill, N.J.) at EC80 concentration of 0.01 uM obtained from dose-response curves of control agonist.

Rat PK (i.v./p.o.) = type: in vivo; settings: for clearance: iv, read-out: Rat In vivo CL; for Oral AUC/D: formulation as in Table 6; for Rat In vivo CL: i.v.; for increase in oral bioavailability: compound 39 vs compound 6, compound 42 vs compound 40
Description: Sprague Dawley Rats (n=3) were dosed both intravenously and orally with a solution formulation followed by plasma collection at time points providing sufficient coverage of the absorption, distribution, metabolism and excretion phases of the test article. Test article concentrations at each time point were determined by LC-MS detected bioanalytical analysis. Non-compartmental pharmacokinetic analysis of the intravenous bioanalytical data provided area under the curve, clearance, volume of distribution, and terminal half life parameters while similar analysis of plasma samples from animals dosed orally provided area under the curve, bio-available fraction and oral terminal half life pharmacokinetic parameters.
Rats (n of 3) were dosed both intravenously and orally with the various compounds. Plasma samples were collected at time points chosen to provide sufficient coverage of the absorption, distribution, metabolism and excretion phases of the test compound. LC-MS detected bioanalytical analysis was performed on the plasma samples utilizing a standard curve and quality control samples to provide enough precision and accuracy to determine the concentrations test article for plasma from each time point. Non-compartmental pharmacokinetic analysis of the intravenous bioanalytical data provided area under the curve, clearance, volume of distribution, terminal half life parameters while similar analysis of plasma samples from animals dosed orally provided area under the curve, bio-available fraction and oral terminal half life pharmacokinetic parameters (see FIG. 1).

[4] = Rat liver microsome clearance; type: in vitro ADME; settings: for CLint scaled at 2 μM: rat liver microsomes, read-out: Rat Microsome In Vitro CLint; for CLint scaled at 2 μM / Rat Microsome In Vitro CLint: 1 mg/mL rat hepatic microsomes, NADPH, 2 μM; for RLM CL (rat liver microsome hepatic clearance): first value of RLM/HLM cell
Description: Microsomal In-Vitro Clearance:
The test articles (2 μM) were incubated for one hour in 1 mg/mL rat hepatic microsomes with 2 mM NADPH at 37° C. with aliquots removed at t=0, 15, 30 and 60 minutes. Incubations were terminated at the specified times by protein precipitation, and samples were centrifuged. Resultant supernants were analyzed by LC-MS/MS for the amount of incubated compound remaining, and the half life (t1/2) and intrinsic microsomal clearance rate (CLint) of each compound was calculated.

[5] = Rat microsome protein binding (equilibrium dialysis); type: in vitro ADME; settings: rat liver microsomes, 1 mg/mL rat hepatic microsomes, read-out: Rat Microsomal Binding Fu
Description: as §1, §2

Molt-4 cells = assay: Chemotaxis assay of Molt-4 cells towards TECK; type: cell-based; settings: Molt-4 cells in HBSS buffer with 0.1% BSA, TECK at EC80
Description: Molt-4 cells were harvested and re-suspended in HBSS buffer with 0.1% BSA or in 100% human serum. Cell suspensions were mixed with compound solutions for 10 min and then seeded onto the upper chamber of the ChemoTX chemotaxis plates with 5 μm pore size polycarbonate membrane from NeuroProbe (Gaithersburg, Md.). EC80 concentration of TECK was applied in the bottom chamber. After 2 hours of incubation at 37° C., the assay was terminated by removing the upper chamber. The cells migrated into the bottom chamber were quantified with CyQUANT solution from Invitrogen (Grand Island, N.Y.).

[6] = Human liver microsome clearance; type: in vitro ADME; settings: second value of RLM/HLM cell
[7] = oral, 6: co-solvent (pH 9), 39, 40, 42: co-solvent + surfactant (pH 9)

fraction unbound at 6 h [3]	LipE (CCR9 receptor)	Rat In vivo CL as % Hepatic Blood Flow (Rat PK (i.v./p.o.))	clearance (Rat PK (i.v./p.o.); Sprague Dawley, plasma)	Oral AUC/D (Rat PK (i.v./p.o.); oral)	CLint scaled at 2 μM [4]	fraction unbound at 6 h [5]	Sol. pH 4 [1]	Sol. pH 7 [1]	Sol. pH 9 [1]	IC50 (Molt-4 cells; Homo sapiens)	HLM CL (human liver microsome hepatic clearance) [6]	Vd (in words) (Rat PK (i.v./p.o.))	in vivo CL (in words) (Rat PK (i.v./p.o.))	RLM CL (rat liver microsome hepatic clearance) [4]	IC50 (CCR9 receptor)	Rat Plasma Protein Binding (PPB) Fu [3]	Rat In vivo CL (Rat PK (i.v./p.o.))	Rat Microsome In Vitro CLint [4]	SMILES	other results
0.01	2.4	44%	24 mL/min/kg	0.08 ug · hr/ml/(mg/kg)	717 mL/min/kg	0.703	–	–	–	–	–	–	–	–	–	–	–	–	Cc1nc2ncnn2c(O)c1Cc1ccc(C(C)(C)C)cc1 [Compound 6]	solubility at 24 h ([1]; pH 4 buffer, pH 4 (Table 6), read-out: Solubility pH 4): 13 µg/mL (≈ 43.9 µM); solubility at 24 h ([1]; pH 7.4 buffer, pH 7.4 (Table 6), read-out: Solubility pH 7.4): 140 µg/mL (≈ 472 µM); solubility at 24 h ([1]; pH 9 buffer, pH 9 (Table 6), read-out: Solubility pH 9): 1000 µg/mL (≈ 3370 µM); In-vitro Precipitation Time (Visual assessment), SGF [2]: SGF: 0 min; In-vitro Precipitation Time (Visual assessment), SIF [2]: SIF: 120 min; bioavailability (Rat PK (i.v./p.o.); Sprague Dawley, plasma, oral, 6: co-solvent (pH 9), 39, 40, 42: co-solvent + surfactant (pH 9), read-out: % F (p.o.)): 12%
–	4.4	–	–	–	–	–	13 ug/mL	136 ug/mL	> 1000 ug/mL	0.48 µM	19 mL/min/kg	moderate	high	51 mL/min/kg	–	–	–	–	Cc1nc2ncnn2c(O)c1Cc1ccc(C(C)(C)C)cc1 [Compound 11]	half-life (in words) (Rat PK (i.v./p.o.)): short; oral bioavailability (in words) (Rat PK (i.v./p.o.)): low
0.01	–	10%	5 mL/min/kg	–	373 mL/min/kg	0.85	3 ug/mL	135 ug/mL	> 1000 ug/mL	0.042 µM	8 mL/min/kg	–	–	48 mL/min/kg	0.008 µM	–	–	–	COCc1nc2ncnn2c(O)c1Cc1ccc(C(C)(C)C)cc1 [Compound 26]	–
0.01	–	32%	17 mL/min/kg	–	111 mL/min/kg	0.255	4 ug/mL	58 ug/mL	910 ug/mL	0.02 µM	13 mL/min/kg	–	–	37 mL/min/kg	0.005 µM	–	–	–	CC(C)(C)c1ccc(Cc2c(C3CCC3)nc3ncnn3c2O)cc1 [Compound 27]	–
0.011	5.6	3%	1 mL/min/kg	–	8 mL/min/kg	0.85	> 1000 ug/mL	994 ug/mL	982 ug/mL	0.5 µM	1 mL/min/kg	increased	lower	7 mL/min/kg	0.064 µM	–	–	–	CCc1nc2ncnn2c(O)c1Cc1ccc(C(C)(C)C#N)cc1 [Compound 37]	exposure (in words) (Rat PK (i.v./p.o.)): highest exposure for the series; half-life (in words) (Rat PK (i.v./p.o.)): extended; metabolic stability (in words) [4]: increased
–	5.9	9%	–	–	–	–	132 ug/mL	999 ug/mL	989 ug/mL	–	5 mL/min/kg	low	relatively low	15 mL/min/kg	0.013 µM	0.010	5 mL/min/kg	21 mL/min/kg	COCc1nc2nc(O)c(Cc3ccc(C(C)(C)C)cc3)c(COC)n2n1 [Compound 38, 6-(4-(tert-butyl)benzyl)-2,7-bis(methoxymethyl)-[1,2,4]triazolo[1,5-a]pyrimidin-5-ol]	solubility (in words) [1]: improved; IC50 (Molt-4 cells): 0.2 µM; exposure (in words) (Rat PK (i.v./p.o.)): good; metabolic stability (in words) [4]: improved
–	–	–	–	0.32 ug · hr/ml/(mg/kg)	–	–	–	–	–	–	–	–	–	–	–	–	–	–	Cc1nc2nc(CO)nn2c(O)c1Cc1ccc(C(C)(C)C)cc1 [Compound 39]	Solubility pH 4 ([1]; pH 4 (Table 6)): 0.024 mg/ml; Solubility pH 7.4 ([1]; pH 7.4 (Table 6)): 0.26 mg/ml; Solubility pH 9 ([1]; pH 9 (Table 6)): 1 mg/ml; In-vitro Precipitation Time (Visual assessment), SGF [2]: SGF: 60 min; In-vitro Precipitation Time (Visual assessment), SIF [2]: SIF: >240 min; increase in oral bioavailability (Rat PK (i.v./p.o.)): approximately 4 fold; % F (p.o.) (Rat PK (i.v./p.o.); [7]): 43%
–	–	15%	–	–	–	–	–	–	–	–	–	–	–	–	–	0.010	8 mL/min/kg	171 mL/min/kg	COCc1nc2nc(C)c(Cc3ccc(C(C)(C)C)cc3)c(O)n2n1 [Compound 41]	–
–	–	7%	–	1.25 ug · hr/ml/(mg/kg)	–	–	–	–	–	–	–	–	–	–	–	0.010	4 mL/min/kg	373 mL/min/kg	Cc1nc2nc(OCCO)nn2c(O)c1Cc1ccc(C(C)(C)C)cc1 [Compound 42]	increase in solubility at pH 4 ([1]; compound 42 vs compound 40): ~7 fold; increase in solubility at pH 7.4 ([1]; compound 42 vs compound 40): ~30 fold; Solubility pH 4 ([1]; pH 4 (Table 6)): 0.045 mg/ml; Solubility pH 7.4 ([1]; pH 7.4 (Table 6)): 0.61 mg/ml; Solubility pH 9 ([1]; pH 9 (Table 6)): 1 mg/ml; increase in oral bioavailability (Rat PK (i.v./p.o.)): 3 fold; % F (p.o.) (Rat PK (i.v./p.o.); [7]): 43%
